The results in this text go back to PMC9572083, “Hybrids of 1,4-Quinone with Quinoline Derivatives: Synthesis, Biological Activity, and Molecular Docking with DT-Diaphorase (NQO1)” (Molecules, 2022).

What is called melting point is the temperature, or range, at which the solid turns liquid. Usually IC50 stands for the concentration that gives 50% inhibition. Read a low IC50 as greater potency.

T1 sequence (P15559 whole entry): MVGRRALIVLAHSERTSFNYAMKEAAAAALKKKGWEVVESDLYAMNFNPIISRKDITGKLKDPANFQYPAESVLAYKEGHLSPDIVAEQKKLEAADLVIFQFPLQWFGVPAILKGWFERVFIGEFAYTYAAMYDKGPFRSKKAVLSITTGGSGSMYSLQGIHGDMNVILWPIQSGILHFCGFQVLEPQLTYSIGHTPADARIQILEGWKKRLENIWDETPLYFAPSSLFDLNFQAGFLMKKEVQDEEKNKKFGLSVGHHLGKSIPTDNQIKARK

Tested on in one data set: not given
Test: not given
Conditions: not given
`Cc1ccc2cccc(OC3=C(Cl)C(=O)c4ccncc4C3=O)c2n1` [Compound 13b, 6-chloro-7-[(2-methylquinolin-8-yl)oxy]isoquinoline-5,8-dione] returned a melting point of 110 to 112 °C.
`O=C1C(Cl)=C(Oc2cccc3cccnc23)C(=O)c2cnccc21` [Compound 13a, 6-chloro-7-(quinolin-8-yloxy)isoquinoline-5,8-dione] displayed a melting point of 86 to 88 °C.

The test system of another data set is MDA-MB-231 cells. Kind of data set: Cytotoxic activity, WST-1 assay, breast cancer MDA-MB-231. The class given is cell-based, human. The following applies: HFF-1 vs MDA-MB-231. The method in brief: (§1)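 Cells seeded at 5 × 10^4/well in DMEM with 10% FCS at 37 °C, 5% CO2, and exposed 72 h to compounds at 1–100 µg/mL. WST-1 formazan read at 450 nm. IC50 is the µM concentration giving 50% growth inhibition, with Neg. meaning above 30 µM; mean of ≥3 independent triplicate experiments.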
`Cc1ccc2cccc(OC3=C(Cl)C(=O)c4ccncc4C3=O)c2n1` [Compound 13b, 6-chloro-7-[(2-methylquinolin-8-yl)oxy]isoquinoline-5,8-dione]: the “SI (IC50 HFF-1/IC50 cancer line) MDA-MB-231” value stood at 236.73.
With `O=C1C(Cl)=C(Oc2cccc3cccnc23)C(=O)c2cnccc21` [Compound 13a, 6-chloro-7-(quinolin-8-yloxy)isoquinoline-5,8-dione], the “SI (IC50 HFF-1/IC50 cancer line) MDA-MB-231” value is given as 27.15.

Staying with this data set, now noted: Homo sapiens; breast cancer MDA-MB-231, 72 h, WST-1.
With `Cc1ccc2cccc(OC3=C(Cl)C(=O)c4ccncc4C3=O)c2n1` [Compound 13b, 6-chloro-7-[(2-methylquinolin-8-yl)oxy]isoquinoline-5,8-dione], the IC50 amounted to 110 ± 10 nM.
Compound `O=C1C(Cl)=C(Oc2cccc3cccnc23)C(=O)c2cnccc21` [Compound 13a, 6-chloro-7-(quinolin-8-yloxy)isoquinoline-5,8-dione] gave an IC50 of 1020 ± 150 nM.

A further data set has as its target T1, NQO1 (DT-diaphorase, EC 1.6.5.5, human recombinant) (Homo sapiens, UniProt P15559).
T1 construct: purchased Sigma-Aldrich
In words: NQO1 substrate NADPH recycling enzymatic assay. It is filed as biochemical. To be noted: compound 10 µmol/L, pH 7.4, 25 °C, absorbance at 340 nm. The method in brief: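 Human recombinant NQO1 (1.4 µg/mL) in 50 mmol/L potassium phosphate, pH 7.4, was tested with compounds at 10 µmol/L. NADPH was dispensed to start the reaction, and A340 was read every 10 s for 5 min at 25 °C. Initial slopes were expressed as µmol NADPH/µmol NQO1/min against compound-free reactions.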
As for `Cc1ccc2cccc(OC3=C(Cl)C(=O)c4ccncc4C3=O)c2n1` [Compound 13b, 6-chloro-7-[(2-methylquinolin-8-yl)oxy]isoquinoline-5,8-dione], the “NQO1 activity (enzymatic conversion rate)” value is recorded as 1143 ± 36 µmol NADPH/µmol NQO1/min.
For `O=C1C(Cl)=C(Oc2cccc3cccnc23)C(=O)c2cnccc21` [Compound 13a, 6-chloro-7-(quinolin-8-yloxy)isoquinoline-5,8-dione], the “NQO1 activity (enzymatic conversion rate)” value came out at 1210 ± 23 µmol NADPH/µmol NQO1/min.

The next data set relates to Colo-829 cells. Kind of data set: Cytotoxic activity, WST-1 assay, melanoma Colo-829. It is filed as cell-based, human. To be noted: HFF-1 vs Colo-829. The method in brief: as §1
(In general: Tetrazolium assays rely on reduction of a dye to a coloured formazan, in cell work by metabolically active cells.)
For the compound `Cc1ccc2cccc(OC3=C(Cl)C(=O)c4ccncc4C3=O)c2n1` [Compound 13b, 6-chloro-7-[(2-methylquinolin-8-yl)oxy]isoquinoline-5,8-dione], the “SI (IC50 HFF-1/IC50 cancer line) Colo-829” value was found to be 66.77.
For `O=C1C(Cl)=C(Oc2cccc3cccnc23)C(=O)c2cnccc21` [Compound 13a, 6-chloro-7-(quinolin-8-yloxy)isoquinoline-5,8-dione], the “SI (IC50 HFF-1/IC50 cancer line) Colo-829” value was found to be 162.88.

The data set is the same for the next values; noted with them: Homo sapiens; melanoma Colo-829, 72 h, WST-1.
For the compound `Cc1ccc2cccc(OC3=C(Cl)C(=O)c4ccncc4C3=O)c2n1` [Compound 13b, 6-chloro-7-[(2-methylquinolin-8-yl)oxy]isoquinoline-5,8-dione], the IC50 was 390 ± 110 nM.
In the case of `O=C1C(Cl)=C(Oc2cccc3cccnc23)C(=O)c2cnccc21` [Compound 13a, 6-chloro-7-(quinolin-8-yloxy)isoquinoline-5,8-dione], the IC50 turned out to be 170 ± 20 nM.

For another data set, the system named is TP53. In words: Transcriptional activity of TP53 gene in A549 cells (RT-QPCR). The class given is cell-based, human. To be noted: 24 h, concentration equal to half of IC50. The procedure:
(§2) The mechanism of anticancer activity was determined by detection of transcriptional activity of the genes encoding a proliferation marker (H3 histone), cell cycle regulators (p53 and p21), and the mitochondrial apoptosis pathway (BCL-2 and BAX) (Figure 3a–d). The derivatives 11b, 12b, 13b, and 14b were selected for this study.
(§3) Transcriptional activity of genes (TP53, CDKN1A, BAX, and BCL-2) was rated by real-time RT-QPCR using Opticon™ DNA Engine system (MJ Research, Watertown, NY, USA) and QuantTect® SYBR® Green RT-PCR Kit (Qiagen, Hilden, Germany). Cultured cells were incubated with tested compounds for 24 h. RNA was extracted using Quick-RNA™ MiniPrep kit columns (Zymo Research, Irvine, CA, USA). The extracted RNA was assessed qualitatively and quantitatively. The amount and purity of the total RNA in extracts were determined spectrophotometrically (HP8452A apparatus, Hewlett Packard, Waldbronn, Germany).
Consider `Cc1ccc2cccc(OC3=C(Cl)C(=O)c4ccncc4C3=O)c2n1` [Compound 13b, 6-chloro-7-[(2-methylquinolin-8-yl)oxy]isoquinoline-5,8-dione], for which the TP53 gene expression result is reported as “significant increase”.

The next data set relates to A549 cells. Kind of data set: Cytotoxic activity, WST-1 assay, lung cancer A549. It is filed as cell-based, human. To be noted: HFF-1 vs A549. The method in brief:
as §1
Consider `Cc1ccc2cccc(OC3=C(Cl)C(=O)c4ccncc4C3=O)c2n1` [Compound 13b, 6-chloro-7-[(2-methylquinolin-8-yl)oxy]isoquinoline-5,8-dione], for which the “SI (IC50 HFF-1/IC50 cancer line) A549” value was found to be 45.68.
For `O=C1C(Cl)=C(Oc2cccc3cccnc23)C(=O)c2cnccc21` [Compound 13a, 6-chloro-7-(quinolin-8-yloxy)isoquinoline-5,8-dione], the “SI (IC50 HFF-1/IC50 cancer line) A549” value stood at 923.00.

Staying with this data set, now noted: Homo sapiens; lung cancer A549, 72 h, WST-1.
`Cc1ccc2cccc(OC3=C(Cl)C(=O)c4ccncc4C3=O)c2n1` [Compound 13b, 6-chloro-7-[(2-methylquinolin-8-yl)oxy]isoquinoline-5,8-dione] gave an IC50 of 570 ± 20 nM.
`O=C1C(Cl)=C(Oc2cccc3cccnc23)C(=O)c2cnccc21` [Compound 13a, 6-chloro-7-(quinolin-8-yloxy)isoquinoline-5,8-dione] came in with an IC50 of 30 ± 10 nM.

The next data set deals with T47D cells. Kind of data set: Cytotoxic activity, WST-1 assay, breast cancer T47D. It is filed as cell-based, human. The following applies: HFF-1 vs T47D. Summed up: as §1
Take `Cc1ccc2cccc(OC3=C(Cl)C(=O)c4ccncc4C3=O)c2n1` [Compound 13b, 6-chloro-7-[(2-methylquinolin-8-yl)oxy]isoquinoline-5,8-dione]: the “SI (IC50 HFF-1/IC50 cancer line) T47D” value was 20.19.
As to `O=C1C(Cl)=C(Oc2cccc3cccnc23)C(=O)c2cnccc21` [Compound 13a, 6-chloro-7-(quinolin-8-yloxy)isoquinoline-5,8-dione], the “SI (IC50 HFF-1/IC50 cancer line) T47D” value stood at 307.67.

Still in this data set, the particulars now being: Homo sapiens; breast cancer T47D, 72 h, WST-1.
With `Cc1ccc2cccc(OC3=C(Cl)C(=O)c4ccncc4C3=O)c2n1` [Compound 13b, 6-chloro-7-[(2-methylquinolin-8-yl)oxy]isoquinoline-5,8-dione], inhibition was half-maximal at 1290 ± 30 nM (IC50).
Same read-out and setting: the same measure for `O=C1C(Cl)=C(Oc2cccc3cccnc23)C(=O)c2cnccc21` [Compound 13a, 6-chloro-7-(quinolin-8-yloxy)isoquinoline-5,8-dione]: 90 ± 40 nM.

For a further data set, the system named is H3 histone gene. Kind of data set: Transcriptional activity of H3 histone gene in A549 cells (RT-QPCR). The class given is cell-based, human. To be noted: 24 h, concentration equal to half of IC50. The procedure: as §2, §3
Turning to `Cc1ccc2cccc(OC3=C(Cl)C(=O)c4ccncc4C3=O)c2n1` [Compound 13b, 6-chloro-7-[(2-methylquinolin-8-yl)oxy]isoquinoline-5,8-dione], the “Number of mRNA copies of the histone H3 gene” value is “reduce the amount of mRNA copies by half”.

In another data set the test system is CDKN1A. Kind of data set: Transcriptional activity of CDKN1A gene in A549 cells (RT-QPCR). The class given is cell-based, human. The following applies: 24 h, concentration equal to half of IC50. As for the experimental part:
as §2, §3
As to `Cc1ccc2cccc(OC3=C(Cl)C(=O)c4ccncc4C3=O)c2n1` [Compound 13b, 6-chloro-7-[(2-methylquinolin-8-yl)oxy]isoquinoline-5,8-dione], the “CDKN1A expression (copies of mRNA)” value was “highest increase”.

The subject of a further data set is SK-OV-3 cells. In words: Cytotoxic activity, WST-1 assay, ovarian cancer SK-OV-3. The class given is cell-based, human. To be noted: HFF-1 vs SK-OV-3. The method in brief: as §1
As for `Cc1ccc2cccc(OC3=C(Cl)C(=O)c4ccncc4C3=O)c2n1` [Compound 13b, 6-chloro-7-[(2-methylquinolin-8-yl)oxy]isoquinoline-5,8-dione], the “SI (IC50 HFF-1/IC50 cancer line) SK-OV-3” value was 53.14.
Regarding `O=C1C(Cl)=C(Oc2cccc3cccnc23)C(=O)c2cnccc21` [Compound 13a, 6-chloro-7-(quinolin-8-yloxy)isoquinoline-5,8-dione], the “SI (IC50 HFF-1/IC50 cancer line) SK-OV-3” value is reported as 60.20.

The same data set, now with this note: Homo sapiens; ovarian cancer SK-OV-3, 72 h, WST-1.
In turn, `Cc1ccc2cccc(OC3=C(Cl)C(=O)c4ccncc4C3=O)c2n1` [Compound 13b, 6-chloro-7-[(2-methylquinolin-8-yl)oxy]isoquinoline-5,8-dione] displayed an IC50 of 490 ± 50 nM.
On the same count and under the same terms, in the case of `O=C1C(Cl)=C(Oc2cccc3cccnc23)C(=O)c2cnccc21` [Compound 13a, 6-chloro-7-(quinolin-8-yloxy)isoquinoline-5,8-dione] it was 460 ± 20 nM.

Another data set relates to MCF-7 cells. In words: Cytotoxic activity, WST-1 assay, breast cancer MCF-7. The class given is cell-based, human. The following applies: HFF-1 vs MCF-7. Summed up: as §1
With `Cc1ccc2cccc(OC3=C(Cl)C(=O)c4ccncc4C3=O)c2n1` [Compound 13b, 6-chloro-7-[(2-methylquinolin-8-yl)oxy]isoquinoline-5,8-dione], the “SI (IC50 HFF-1/IC50 cancer line) MCF-7” value came out at 42.69.
Turning to `O=C1C(Cl)=C(Oc2cccc3cccnc23)C(=O)c2cnccc21` [Compound 13a, 6-chloro-7-(quinolin-8-yloxy)isoquinoline-5,8-dione], the “SI (IC50 HFF-1/IC50 cancer line) MCF-7” value was 23.87.

The same data set, now with this note: Homo sapiens, MCF7; breast cancer MCF-7, 72 h, WST-1.
In the case of `Cc1ccc2cccc(OC3=C(Cl)C(=O)c4ccncc4C3=O)c2n1` [Compound 13b, 6-chloro-7-[(2-methylquinolin-8-yl)oxy]isoquinoline-5,8-dione], half-maximal inhibition (IC50) required 610 ± 90 nM.
Same read-out and setting: the same measure for `O=C1C(Cl)=C(Oc2cccc3cccnc23)C(=O)c2cnccc21` [Compound 13a, 6-chloro-7-(quinolin-8-yloxy)isoquinoline-5,8-dione]: 1160 ± 150 nM.

The test system of a further data set is HFF-1 cells. Kind of data set: Cytotoxic activity, WST-1 assay, normal fibroblasts HFF-1. The class given is cell-based. The following applies: Homo sapiens, normal fibroblasts HFF-1, 72 h. Summed up: as §1
The compound `Cc1ccc2cccc(OC3=C(Cl)C(=O)c4ccncc4C3=O)c2n1` [Compound 13b, 6-chloro-7-[(2-methylquinolin-8-yl)oxy]isoquinoline-5,8-dione] gave an IC50 of 26000 ± 1600 nM.
For the compound `O=C1C(Cl)=C(Oc2cccc3cccnc23)C(=O)c2cnccc21` [Compound 13a, 6-chloro-7-(quinolin-8-yloxy)isoquinoline-5,8-dione], half-maximal inhibition (IC50) required 27700 ± 700 nM.
